Experimental findings from patent publication US20100190747A1, “Fused ring compound and use thereof” (priority 2009, published 2010) are described below.

This test deals with T1, delta-5-desaturase (Rattus norvegicus, UniProt Q920R3).
T1 construct: the microsomal fraction of a rat river (10 μl), which had been diluted to 3 mg/ml; from tissue; host or cells: rat liver microsomal fraction
T1 sequence (Q920R3 whole entry): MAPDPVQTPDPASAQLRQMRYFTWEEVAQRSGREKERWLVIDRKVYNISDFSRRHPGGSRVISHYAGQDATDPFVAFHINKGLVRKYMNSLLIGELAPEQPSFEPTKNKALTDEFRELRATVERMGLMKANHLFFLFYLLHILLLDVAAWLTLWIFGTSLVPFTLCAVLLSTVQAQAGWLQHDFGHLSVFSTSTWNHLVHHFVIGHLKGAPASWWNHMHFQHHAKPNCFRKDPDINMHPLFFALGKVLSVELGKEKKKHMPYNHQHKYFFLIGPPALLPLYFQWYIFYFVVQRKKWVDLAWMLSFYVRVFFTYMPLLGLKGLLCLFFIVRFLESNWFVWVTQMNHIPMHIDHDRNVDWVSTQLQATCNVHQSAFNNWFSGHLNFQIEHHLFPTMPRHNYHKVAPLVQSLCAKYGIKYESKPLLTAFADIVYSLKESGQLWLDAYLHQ
The test is described as follows: Inhibitory activity on delta-5-desaturase (rat liver microsomal fraction, 14C-eicosatrienoic acid, TLC). As to conditions: test compound at 10 μM, room temperature, 120 minutes. It is filed as biochemical. The method, boiled down:
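Rat liver microsomes (3 mg/ml before addition) incubated with test compound at 10 μM, NADH, ATP, CoA and 14C-eicosatrienoic acid in phosphate buffer pH 7.4 with BSA and glutathione, 120 min at room temperature. Lipids saponified, extracted, separated by reverse-phase TLC and imaged; % inhibition reported.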
In the case of `N#CCCNC(=O)CCCSc1nc2cc[nH]c2c(=O)n1-c1ccc(OCC2CC2)cc1` [Example 92, N-(2-cyanoethyl)-4-({3-[4-(cyclopropylmethoxy)phenyl]-4-oxo-4,5-dihydro-3H-pyrrolo[3,2-d]pyrimidin-2-yl}sulfanyl)butanamide], the inhibition at 10 µM is 102%. As for `O=c1c2cc[nH]c2nc(OCC(F)(F)F)n1-c1ccc(OCC(F)(F)F)c(F)c1` [Example 264, 3-[3-Fluoro-4-(2,2,2-trifluoroethoxy)phenyl]-2-(2,2,2-trifluoroethoxy)-3,7-dihydro-4H-pyrrolo[2,3-d]pyrimidin-4-one], the figure is 101%; as for `CC1(O)CCN(C(=O)CCCSc2nc3cc[nH]c3c(=O)n2-c2ccc(OCC(F)(F)F)cc2)CC1` [Example 134, 2-{[4-(4-Hydroxy-4-methylpiperidin-1-yl)-4-oxobutyl]sulfanyl}-3-[4-(2,2,2-trifluoroethoxy)phenyl]-3,5-dihydro-4H-pyrrolo[3,2-d]pyrimidin-4-one], 100%; as for `CSc1nc2[nH]ccc2c(=O)n1-c1ccc(OCC(F)(F)F)c(F)c1` [Example 237, 3-[3-Fluoro-4-(2,2,2-trifluoroethoxy)phenyl]-2-(methylsulfanyl)-3,7-dihydro-4H-pyrrolo[2,3-d]pyrimidin-4-one], 98%. As for `CCOc1ccc(-n2c(SCCCCC(=O)NCCC#N)nc3cc[nH]c3c2=O)cc1` [Example 65, N-(2-cyanoethyl)-5-{[3-(4-ethoxyphenyl)-4-oxo-4,5-dihydro-3H-pyrrolo[3,2-d]pyrimidin-2-yl]sulfanyl}pentanamide], the figure is 97%; as for `N#CC1(CSc2nc3c(c(=O)n2-c2ccc(OCC(F)(F)F)cc2)CC(=O)N3)CC1` [Example 339, 1-[({4,6-Dioxo-3-[4-(2,2,2-trifluoroethoxy)phenyl]-4,5,6,7-tetrahydro-3H-pyrrolo[2,3-d]pyrimidin-2-yl}sulfanyl)methyl]cyclopropanecarbonitrile], 100%; as for `O=C1Cc2c(nc(SC3CC3)n(-c3ccc(OCC(F)(F)F)cc3)c2=O)N1` [Example 291, 2-(Cyclopropylsulfanyl)-3-[4-(2,2,2-trifluoroethoxy)phenyl]-5,7-dihydro-3H-pyrrolo[2,3-d]pyrimidine-4,6-dione], 99%. With `N#CCCNC(=O)CCCSc1nc2cc[nH]c2c(=O)n1-c1ccc(OCC(F)(F)F)cc1` [Example 67] the figure was 96%; with `CCSc1nc2[nH]c(Cl)cc2c(=O)n1-c1ccc(OCC(F)(F)F)cc1` [Example 231, 6-Chloro-2-(ethylsulfanyl)-3-[4-(2,2,2-trifluoroethoxy)phenyl]-3,7-dihydro-4H-pyrrolo[2,3-d]pyrimidin-4-one], 101%; with `O=C(CCCSc1nc2cc[nH]c2c(=O)n1-c1ccc(OCC(F)(F)F)cc1)N1CCOCC1` [Example 109, 2-[(4-Morpholin-4-yl-4-oxobutyl)sulfanyl]-3-[4-(2,2,2-trifluoroethoxy)phenyl]-3,5-dihydro-4H-pyrrolo[3,2-d]pyrimidin-4-one], 101%. For `CC(C)(C)CCOc1ccc(-n2c(SCCCC(=O)NCCC#N)nc3[nH]ccc3c2=O)cc1` [Example 176, N-(2-cyanoethyl)-4-({3-[4-(3,3-dimethylbutoxy)phenyl]-4-oxo-4,7-dihydro-3H-pyrrolo[2,3-d]pyrimidin-2-yl}sulfanyl)butanamide], the inhibition at 10 µM is 98%. With `Cn1ccc2c(=O)n(-c3ccc(OCC(F)(F)F)cc3)c(SCCCC(=O)NCCC#N)nc21` [Example 195] the figure was 101%. As for `CC(C)(CO)NC(=O)CCCSc1nc2cc[nH]c2c(=O)n1-c1ccc(OCC(F)(F)F)cc1` [Example 100, N-(2-hydroxy-1,1-dimethylethyl)-4-({4-oxo-3-[4-(2,2,2-trifluoroethoxy)phenyl]-4,5-dihydro-3H-pyrrolo[3,2-d]pyrimidin-2-yl}sulfanyl)butanamide], the figure is 100%; as for `CC1(COc2ccc(-n3c(SCCCC(=O)NCCC#N)nc4[nH]ccc4c3=O)cc2)CC1` [Example 188, N-(2-cyanoethyl)-4-[(3-{4-[(1-methylcyclopropyl)methoxy]phenyl}-4-oxo-4,7-dihydro-3H-pyrrolo[2,3-d]pyrimidin-2-yl)sulfanyl]butanamide], 98%; as for `O=c1c2cc[nH]c2nc(OCC(F)(F)F)n1-c1ccc(OCC(F)(F)F)cc1` [Example 227, 2-(2,2,2-Trifluoroethoxy)-3-[4-(2,2,2-trifluoroethoxy)phenyl]-3,7-dihydro-4H-pyrrolo[2,3-d]pyrimidin-4-one], 99%.

As to `CCOCCOCCSc1nc2[nH]ccc2c(=O)n1-c1ccc(OCC(F)(F)F)cc1` [Example 192, 2-{[2-(2-Ethoxyethoxy)ethyl]sulfanyl}-3-[4-(2,2,2-trifluoroethoxy)phenyl]-3,7-dihydro-4H-pyrrolo[2,3-d]pyrimidin-4-one], the inhibition at 10 µM was found to be 101%.

Turning to `COCCSc1nc2c(c(=O)n1-c1ccc(OCC(F)(F)F)cc1)CC(=O)N2` [Example 325, 2-[(2-Methoxyethyl)sulfanyl]-3-[4-(2,2,2-trifluoroethoxy)phenyl]-5,7-dihydro-3H-pyrrolo[2,3-d]pyrimidine-4,6-dione], the inhibition at 10 µM was determined as 105%. As for `CSc1nc2cc[nH]c2c(=O)n1-c1ccc(OCC(F)(F)F)cc1` [Example 121, 2-(Methylsulfanyl)-3-[4-(2,2,2-trifluoroethoxy)phenyl]-3,5-dihydro-4H-pyrrolo[3,2-d]pyrimidin-4-one], the figure is 100%. As to `CC(C)(O)CCCSc1nc2cc[nH]c2c(=O)n1-c1ccc(OCC(F)(F)F)cc1` [Example 123, 2-[(4-Hydroxy-4-methylpentyl)sulfanyl]-3-[4-(2,2,2-trifluoroethoxy)phenyl]-3,5-dihydro-4H-pyrrolo[3,2-d]pyrimidin-4-one], the inhibition at 10 µM stood at 101%. With `O=C(CCCSc1nc2cc[nH]c2c(=O)n1-c1ccc(OCC(F)(F)F)cc1)NC1CC1` [Example 76, N-cyclopropyl-4-({4-oxo-3-[4-(2,2,2-trifluoroethoxy)phenyl]-4,5-dihydro-3H-pyrrolo[3,2-d]pyrimidin-2-yl}sulfanyl)butanamide] the figure was 99%; with `Cc1c[nH]c2c(=O)n(-c3ccc(OCC(F)(F)F)cc3)c(SCCCC(=O)NCCC#N)nc12` [Example 172, N-(2-cyanoethyl)-4-({7-methyl-4-oxo-3-[4-(2,2,2-trifluoroethoxy)phenyl]-4,5-dihydro-3H-pyrrolo[3,2-d]pyrimidin-2-yl}sulfanyl)butanamide], 99%; with `O=c1c2[nH]ccc2nc(SCCN2CCOCC2)n1-c1ccc(OCC(F)(F)F)cc1` [Example 111, 2-[(2-Morpholin-4-ylethyl)sulfanyl]-3-[4-(2,2,2-trifluoroethoxy)phenyl]-3,5-dihydro-4H-pyrrolo[3,2-d]pyrimidin-4-one], 98%. Regarding `O=C(CCCSc1nc2cc[nH]c2c(=O)n1-c1ccc(OCC(F)(F)F)cc1)N1CCCCC1` [Example 77, 2-[(4-Oxo-4-piperidin-1-ylbutyl)sulfanyl]-3-[4-(2,2,2-trifluoroethoxy)phenyl]-3,5-dihydro-4H-pyrrolo[3,2-d]pyrimidin-4-one], the inhibition at 10 µM stood at 100%. `N#CCCNC(=O)CCCSc1nc2[nH]ccc2c(=O)n1-c1ccc(OCCCC(F)(F)F)cc1` [Example 186, N-(2-cyanoethyl)-4-({4-oxo-3-[4-(4,4,4-trifluorobutoxy)phenyl]-4,7-dihydro-3H-pyrrolo[2,3-d]pyrimidin-2-yl}sulfanyl)butanamide]: the inhibition at 10 µM is 100%.

Regarding `N#CCCNC(=O)CCCSc1nc2cc[nH]c2c(=O)n1-c1ccc(OCCC(F)(F)F)cc1` [Example 90, N-(2-cyanoethyl)-4-({4-oxo-3-[4-(3,3,3-trifluoropropoxy)phenyl]-4,5-dihydro-3H-pyrrolo[3,2-d]pyrimidin-2-yl}sulfanyl)butanamide], the inhibition at 10 µM is 99%. With `COCCOCCCSc1nc2cc[nH]c2c(=O)n1-c1ccc(OCC(F)(F)F)cc1` [Example 78, 2-{[3-(2-Methoxyethoxy)propyl]sulfanyl}-3-[4-(2,2,2-trifluoroethoxy)phenyl]-3,5-dihydro-4H-pyrrolo[3,2-d]pyrimidin-4-one] the figure was 101%; with `O=c1c2cc[nH]c2nc(SCC2CC2)n1-c1ccc(OCC(F)(F)F)cc1` [Example 255, 2-[(Cyclopropylmethyl)sulfanyl]-3-[4-(2,2,2-trifluoroethoxy)phenyl]-3,7-dihydro-4H-pyrrolo[2,3-d]pyrimidin-4-one], 101%. As for `CCOCCOCCSc1nc2cc[nH]c2c(=O)n1-c1ccc(OCC(F)(F)F)cc1` [Example 79, 2-{[2-(2-Ethoxyethoxy)ethyl]sulfanyl}-3-[4-(2,2,2-trifluoroethoxy)phenyl]-3,5-dihydro-4H-pyrrolo[3,2-d]pyrimidin-4-one], the figure is 99%; as for `CCSc1nc2[nH]c(Br)cc2c(=O)n1-c1ccc(OCC(F)(F)F)cc1` [Example 232, 6-Bromo-2-(ethylsulfanyl)-3-[4-(2,2,2-trifluoroethoxy)phenyl]-3,7-dihydro-4H-pyrrolo[2,3-d]pyrimidin-4-one], 96%; as for `O=C(CCCSc1nc2cc[nH]c2c(=O)n1-c1ccc(OCC(F)(F)F)cc1)N1CCC(O)C1` (stereo not shown) [Example 97], 100%. For the compound `N#CCCNC(=O)CCCSc1nc2[nH]ccc2c(=O)n1-c1ccc(OCC2CCC2)cc1` [Example 183, N-(2-cyanoethyl)-4-({3-[4-(cyclobutylmethoxy)phenyl]-4-oxo-4,7-dihydro-3H-pyrrolo[2,3-d]pyrimidin-2-yl}sulfanyl)butanamide], the inhibition at 10 µM worked out at 99%.
